Test results: patent US20180148418A1, “AMIDO-SUBSTITUTED CYCLOHEXANE DERIVATIVES” (Bayer Pharma Aktiengesellschaft, priority 2015, published 2018)

Columns and labels:
TNKS2 = target: T1, TNKS2 (Homo sapiens, UniProt Q9H2K2); assay: TNKS2 Assay B (auto-parsylation, [3H]-NAD+ SPA); assay type: biochemical; details: 6 nM TNKS2, auto-parsylation, over night at room temperature
T1 construct: purchased BPS Bioscience, San Diego, USA 80572 (TNKS2 Histone Ribosylation Assay Kit)
T1 sequence (Q9H2K2 1-1166): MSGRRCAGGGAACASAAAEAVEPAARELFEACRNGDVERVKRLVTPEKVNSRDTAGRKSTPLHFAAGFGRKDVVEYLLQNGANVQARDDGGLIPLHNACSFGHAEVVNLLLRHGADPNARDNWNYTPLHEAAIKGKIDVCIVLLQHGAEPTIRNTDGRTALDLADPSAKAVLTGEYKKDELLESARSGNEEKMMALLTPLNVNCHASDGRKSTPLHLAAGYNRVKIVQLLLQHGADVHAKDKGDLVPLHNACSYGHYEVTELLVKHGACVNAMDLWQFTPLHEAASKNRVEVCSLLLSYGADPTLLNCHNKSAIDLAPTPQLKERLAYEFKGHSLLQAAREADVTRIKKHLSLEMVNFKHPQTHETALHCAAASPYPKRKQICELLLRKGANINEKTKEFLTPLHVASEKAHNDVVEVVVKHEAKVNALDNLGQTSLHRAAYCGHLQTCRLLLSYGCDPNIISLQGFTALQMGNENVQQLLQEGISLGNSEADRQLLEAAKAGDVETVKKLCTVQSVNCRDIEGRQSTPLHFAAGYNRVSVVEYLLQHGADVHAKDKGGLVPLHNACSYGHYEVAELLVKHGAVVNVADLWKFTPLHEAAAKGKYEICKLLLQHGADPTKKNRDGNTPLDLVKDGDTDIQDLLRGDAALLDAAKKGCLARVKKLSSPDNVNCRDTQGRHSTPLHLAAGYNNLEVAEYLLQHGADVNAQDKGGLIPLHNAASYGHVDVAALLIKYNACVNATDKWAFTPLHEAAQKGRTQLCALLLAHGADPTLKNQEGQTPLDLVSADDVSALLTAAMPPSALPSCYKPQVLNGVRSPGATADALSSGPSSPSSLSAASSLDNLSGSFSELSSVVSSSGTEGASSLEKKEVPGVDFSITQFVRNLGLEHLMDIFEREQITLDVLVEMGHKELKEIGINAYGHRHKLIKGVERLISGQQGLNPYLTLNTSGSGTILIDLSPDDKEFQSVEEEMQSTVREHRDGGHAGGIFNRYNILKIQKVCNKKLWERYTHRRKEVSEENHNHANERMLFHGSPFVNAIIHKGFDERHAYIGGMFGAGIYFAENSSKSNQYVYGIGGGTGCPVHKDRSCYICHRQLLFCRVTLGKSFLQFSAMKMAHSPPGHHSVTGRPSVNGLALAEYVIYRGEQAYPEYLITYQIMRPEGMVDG

[1] = tested on: wildtype Wnt signaling cascade; assay: HEK293 TOP assay (Super TopFlash luciferase reporter, Wnt-3a stimulated); assay type: cell-based; details: Homo sapiens, HEK293, 16 h, HEK293 TOP reporter cells, Wnt3a at EC50, 16 hours
How it was run: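 HEK293 cells stably carrying Super TopFlash (TOP) run in parallel with FOP cells, 10000/well plated 24 h ahead, stimulated with recombinant human Wnt-3a. Compounds tested 50 μM to 15 nM in 3.16-fold steps in CAFTY buffer pH 7.4 with 2 mM Ca^2+ and 0.01% BSA; luciferase read-out.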

Cc1nc2c(C(=O)N[C@H]3CC[C@H](C(=O)Nc4c(F)cc(F)cc4Cl)CC3)cnn2c2c1CCC2 [Example 363, N-{trans-4-[(2-chloro-4,6-difluorophenyl)carbamoyl]cyclohexyl}-5-methyl-7,8-dihydro-6H-cyclopenta[e]pyrazolo[1,5-a]pyrimidine-3-carboxamide]
IC50 (TNKS2): 19 nM
IC50 [1]: 21 nM
